The text below walks through data of patent US20240248074A1, “METHOD AND SYSTEM FOR SINGLE-CELL BIOPHYSICAL PROFILING USING A MICROFLUIDIC DEVICE” (NANYANG TECHNOLOGICAL UNIVERSITY, priority 2021, published 2024).

“Also recorded” adds a separate entry of the source. Like-named read-outs stand apart in the source and are kept apart here.

Experiment [1] deals with HL-60 (leukemia cell lines). The experiment is classed as cell-based.
Another experiment relates to HL-60. Nature of the experiment: Immunostaining and flow cytometric analysis of F-actin in HL-60. Type of experiment: cell-based. The following applies: treated HL-60 vs control (FIG. 10 B, D, E). The source says: The effect of cytoskeleton disruptors, such as cytochalasin D (CytoD) and latrunculin B (LatB), on HL-60 deformability, was studied (FIG. 10 A-E).
Experiment [2] has as its system primary neutrophils. Nature of the experiment: Multi-parametric biophysical (impedance) profiling of primary neutrophils treated with stimuli. The experiment is classed as cell-based, human. To be noted: for cell size: 2 hr treatment vs control (FIG. 13B, E); for correlation between CD66b expression and cell size: Example 5 (FIG. 20); for electrical size (cell size): 2 hr treatment (FIG. 17D); for electrical deformability index: 2 hr treatment vs untreated neutrophils (FIG. 17F); for UMAP projection of biophysical features (shift vs control): Example 6, 10 biophysical features (FIG. 21); for nucleus opacity (|Z|12 MHz/|Z|0.3 MHz): 2 hr treatment (FIG. 17G).

Experiment [3] relates to primary neutrophils. Kind of experiment: Flow cytometric analysis of neutrophil activation markers and F-actin. Type of experiment: cell-based, human. The following applies: for CD11 b expression / CD66b expression: Example 4, 2 hr treatment (FIG. 14). On the technique in general: Flow cytometry measures light scatter and fluorescence of single cells or particles in a stream.
Description: The staining protocols for leukocyte identification are similar as previously described^50. The samples were stained for 30 min at 4° C. with FITC-labelled anti-human CD11 b and allophycocyanin (APC)-labelled anti-human CD66b antibodies. Non-specific antibody binding was examined using corresponding isotype negative control antibodies. The cells were washed once prior to flow cytometry analysis. All antibodies were purchased from eBioscience (1:20 dilution) and analyzed using a BD LSR Fortessa flow cytometer (BD Biosciences).

For experiment [4], the system named is primary neutrophils. Nature of the experiment: Annexin V/Propidium iodide (PI) live-dead staining, flow cytometry. The experiment is classed as cell-based, human. To be noted: Example 5; STS 1 μM, 2 hr (FIG. 18).
Setting [5] is: HL-60 treated with cytoskeleton disruptor vs DMSO treated control (FIG. 10).

As to paraformaldehyde [PFA], in experiment [1], the cell size result was “smaller cell size” and the electrical deformability index result is reported as “lower than untreated control”.

Regarding `C/C1=C/C(=O)O[C@@H]2C[C@@H](CC[C@H](C)/C=C\CC1)O[C@@](O)([C@@H]1CSC(=O)N1)C2` [latrunculin B], the electrical deformability index result in experiment [1] (setting [5]) is given as “higher electrical deformability index”. The F-actin expression result in the experiment with HL-60 is on record as “decreased F-actin expression”.

For the molecule `CSCC[C@H](NC=O)C(=O)N[C@@H](CC(C)C)C(=O)N[C@@H](Cc1ccccc1)C(=O)O` [fMLP, N-Formylmethionyl-leucyl-phenylalanine], the cell size entry in the experiment on primary neutrophils [2] (Example 4) is given as “larger than control”. For the same molecule, the “electrical deformability (deformability index)” value in the experiment with primary neutrophils [2] (Example 4, 2 hr, fMLP 1 μM, glucose 30 mM, PMA 200 nM, vs untreated control (FIG. 13D)) is “stiffer cell properties”. Besides, in the experiment on primary neutrophils [2], the “correlation between CD66b expression and cell size” value is “increase in CD66b expression with cell size”; the “UMAP projection of biophysical features (shift vs control)” value (shortened to “UMAP projection … (shift vs control)”) is on record as “smaller shifts in different directions”. In addition, in the experiment with primary neutrophils [2] (Example 5), the “electrical size (cell size)” value is listed as “increased” and the electrical deformability index result is reported as “negligible changes”. In addition, in the experiment with primary neutrophils [3], the CD11 b expression entry is “elevated expressions” and the CD66b expression result is given as “elevated expressions”. Moreover, in the experiment on primary neutrophils [3] (Example 5, 2 hr treatment (FIG. 17C)), the “F-actin expression (MFI)” value is recorded as “highest F-actin expression; also recorded: increased F-actin expression”.

Regarding `C=C1[C@@H](C)[C@H]2[C@H](Cc3ccccc3)NC(=O)[C@]23[C@H](OC(C)=O)/C=C/[C@@](C)(O)C(=O)[C@@H](C)C/C=C/[C@H]3[C@@H]1O` [cytochalasin D], in experiment [1] (setting [5]), the electrical deformability index result is “higher electrical deformability index”. In the experiment on HL-60, the F-actin expression entry was “decreased F-actin expression”.

On to `CN[C@@H]1C[C@H]2O[C@@](C)([C@@H]1OC)n1c3ccccc3c3c4c(c5c6ccccc6n2c5c31)C(=O)NC4` [STS, Staurosporine], for which the “nucleus opacity (|Z|12 MHz/|Z|0.3 MHz)” value with primary neutrophils [2] (Example 5) was “higher nucleus opacity”. Besides, in the experiment on primary neutrophils [2] (Example 5, 2 hr treatment vs control (FIG. 17E)), the membrane opacity entry is listed as “significant increase in membrane opacity”. Moreover, the “UMAP projection … (shift vs control)” value in the experiment with primary neutrophils [2] is recorded as “strong biophysical changes”. For the same molecule, the “Annexin V / PI expression” value with primary neutrophils [4] was “increased Annexin V expression”.

Turning to `CCCCCCCCCCCCCC(=O)O[C@@H]1[C@@H](C)[C@@]2(O)[C@@H](C=C(CO)C[C@]3(O)C(=O)C(C)=C[C@@H]23)[C@@H]2C(C)(C)[C@]12OC(C)=O` [PMA, Phorbol Myristate Acetate], in the experiment with primary neutrophils [2] (Example 4), the cell size entry is reported as “larger than control”. Moreover, the “impedance profile (cell size / opacity clusters)” value in the experiment on primary neutrophils [2] (Example 4, PMA 200 nM, 2 hr) is “two distinct clusters”. Also, in the experiment on primary neutrophils [2], the “correlation between CD66b expression and cell size” value is “increase in CD66b expression with cell size”; the “UMAP projection … (shift vs control)” value was “strong biophysical changes”. In addition, in the experiment on primary neutrophils [2] (Example 5), the “electrical size (cell size)” value is given as “largest increase in cell size”, the “nucleus opacity (|Z|12 MHz/|Z|0.3 MHz)” value is recorded as “significant decrease in nucleus opacities” and the electrical deformability index entry is on record as “more deformable”. Besides, the “impedance profile (cell clusters / populations)” value with primary neutrophils [2] (Example 5, PMA 200 nM, 2 hr (FIG. 19)) was “two distinct cell clusters; also recorded: two distinct cell populations of different size and deformability”. Moreover, in the experiment with primary neutrophils [3], the CD11 b expression result was “elevated expressions” and the CD66b expression result is listed as “elevated expressions”.
